BindingDB's records for patent US20230312571 (Fujian Akeylink Biotechnology, 2023)

Molecular target: Replicase polyprotein 1a (Severe acute respiratory syndrome coronavirus 2, UniProt P0DTC1)
Experiment: Evaluation of the in Vitro Anti-Novel Coronavirus Mpro Protease Activity
Description: The compound was dissolved in DMSO, and diluted in a 3-fold gradient with Echo655 according to the concentration requirements to 10 concentration points, and duplicate tests were set at each concentration, and the diluted solution was added to a 384-well plate. Mpro protein and substrate were diluted with test buffer (100 mM NaCl, 20 mM Tris-HCl, 1 mM EDTA), and Mpro protein was added to the 384-well test plate, incubated with the compound for 30 min at room temperature, and then the substrate was added thereto, and the test concentration of Mpro protein was 25 nM, and the test concentration of substrate was 25 µM. After incubating for 60 minutes in a 30° C. constant temperature incubator, the fluorescence signal value of Ex/Em=340 nm/490 nm was detected by microplate reader. At the same time, the background well containing the substrate and compound but not containing Mpro protein was detected as control.

SMILES: N#C[C@H](C[C@@H]1CCNC1=O)NC(=O)[C@@H]1[C@H]2CC[C@H](C2)N1C(=O)[C@@H](NC(=O)C(F)(F)F)C1CCCCC1 [US20230312571, Compound 2]
- IC50: 249 nM
